Laboratory results taken from ChEMBL document CHEMBL3885881, “DrugMatrix”.

Species: Rattus norvegicus
Test: DrugMatrix - Regimen: Daily Repeat
Format: toxicity, organism-based, Sprague-Dawley
Parameters: regimen Daily Repeat, gender Male, age 6-8 weeks
Details: in vivo, ip, route intraperitoneal, vehicle 100 % SALINE; for ABSOLUTE BASOPHIL / ABSOLUTE EOSINOPHIL / ABSOLUTE LYMPHOCYTE / ABSOLUTE MONOCYTE / ABSOLUTE SEGMENTED NEUTROPHIL / BASOPHIL / EOSINOPHIL / ERYTHROCYTE COUNT / HEMATOCRIT / HEMOGLOBIN / LEUKOCYTE COUNT / LYMPHOCYTE / MEAN CORPUSCULAR HEMOGLOBIN / MEAN CORPUSCULAR HEMOGLOBIN CONCENTRATION / MEAN CORPUSCULAR VOLUME / MONOCYTE / NEUTROPHIL / PLATELET COUNT: tissue Blood
[1] = 0 mg/kg, 120 h, dose level Control, time 5 day
[2] = 0 mg/kg, 120 h, tissue Plasma, dose level Control, time 5 day
[3] = 0 mg/kg, […], dose level Control, time 14 day
[4] = 0 mg/kg, […], dose level Control, time 28 day
[5] = 0 mg/kg, […], tissue Plasma, dose level Control, time 14 day
[6] = 0 mg/kg, […], tissue Plasma, dose level Control, time 28 day

COBALTOUS CHLORIDE
ABSOLUTE BASOPHIL [1]: 32 cells/µL
ABSOLUTE EOSINOPHIL [1]: 110 cells/µL
ABSOLUTE LYMPHOCYTE [1]: 6630 cells/µL
ABSOLUTE MONOCYTE [1]: 140 cells/µL
ABSOLUTE SEGMENTED NEUTROPHIL [1]: 1170 cells/µL
BASOPHIL [1]: 0.38%
EOSINOPHIL [1]: 1.28%
ERYTHROCYTE COUNT [1]: 7.45 x10E6/uL
HEMATOCRIT [1]: 45.74%
HEMOGLOBIN [1]: 14.72 G/DL
LEUKOCYTE COUNT [1]: 8.11 x10E3/uL
LYMPHOCYTE [1]: 81.3%
MEAN CORPUSCULAR HEMOGLOBIN [1]: 19.76 pg
MEAN CORPUSCULAR HEMOGLOBIN CONCENTRATION [1]: 32.16 G/DL
MEAN CORPUSCULAR VOLUME [1]: 61.38 fL
MONOCYTE [1]: 1.76%
NEUTROPHIL [1]: 14.9%
PLATELET COUNT [1]: 1322.4 x10E3/uL
ALANINE AMINOTRANSFERASE [2]: 25.8 u/L
ALBUMIN [2]: 3.64 G/DL
ASPARTATE AMINOTRANSFERASE [2]: 81.4 u/L
BLOOD UREA NITROGEN [2]: 14.4 mg/dL
CHOLESTEROL [2]: 69.2 mg/dL
CREATINE PHOSPHOKINASE [2]: 303.2 u/L
CREATININE [2]: 0.56 mg/dL
GLUCOSE [2]: 125.4 mg/dL
LACTATE DEHYDROGENASE [2]: 105.4 u/L
LIPASE [2]: 22.4 u/L
POTASSIUM [2]: 5.52 MEQ/L
SODIUM [2]: 147 MEQ/L
TOTAL BILIRUBIN [2]: 0.2 mg/dL
TOTAL PROTEIN [2]: 6.1 G/DL
URIC ACID [2]: 1.06 mg/dL
ABSOLUTE BASOPHIL [3]: 130 cells/µL
ABSOLUTE EOSINOPHIL [3]: 140 cells/µL
ABSOLUTE LYMPHOCYTE [3]: 13500 cells/µL
ABSOLUTE MONOCYTE [3]: 400 cells/µL
ABSOLUTE SEGMENTED NEUTROPHIL [3]: 2330 cells/µL
BASOPHIL [3]: 0.72%
EOSINOPHIL [3]: 0.86%
ERYTHROCYTE COUNT [3]: 7.74 x10E6/uL
HEMATOCRIT [3]: 45.98%
LEUKOCYTE COUNT [3]: 16.61 x10E3/uL
LYMPHOCYTE [3]: 81.34%
MEAN CORPUSCULAR HEMOGLOBIN [3]: 18 pg
MEAN CORPUSCULAR HEMOGLOBIN CONCENTRATION [3]: 30.22 G/DL
MEAN CORPUSCULAR VOLUME [3]: 59.4 fL
MONOCYTE [3]: 2.46%
NEUTROPHIL [3]: 14.14%
PLATELET COUNT [3]: 1445.5 x10E3/uL
ABSOLUTE BASOPHIL [4]: 91 cells/µL
ABSOLUTE EOSINOPHIL [4]: 110 cells/µL
ABSOLUTE LYMPHOCYTE [4]: 9910 cells/µL
ABSOLUTE MONOCYTE [4]: 210 cells/µL
ABSOLUTE SEGMENTED NEUTROPHIL [4]: 1560 cells/µL
BASOPHIL [4]: 0.77%
EOSINOPHIL [4]: 0.92%
ERYTHROCYTE COUNT [4]: 8.21 x10E6/uL
HEMATOCRIT [4]: 47.53%
HEMOGLOBIN [4]: 15.65 G/DL
LEUKOCYTE COUNT [4]: 11.91 x10E3/uL
LYMPHOCYTE [4]: 83.34%
MEAN CORPUSCULAR HEMOGLOBIN [4]: 19.07 pg
MEAN CORPUSCULAR HEMOGLOBIN CONCENTRATION [4]: 32.93 G/DL
MEAN CORPUSCULAR VOLUME [4]: 57.9 fL
MONOCYTE [4]: 1.68%
NEUTROPHIL [4]: 12.97%
PLATELET COUNT [4]: 1323.8 x10E3/uL
ALANINE AMINOTRANSFERASE [5]: 31.6 u/L
ALBUMIN [5]: 3.66 G/DL
ALKALINE PHOSPHATASE [5]: 228.6 u/L
ASPARTATE AMINOTRANSFERASE [5]: 79.6 u/L
BLOOD UREA NITROGEN [5]: 11.2 mg/dL
CHLORIDE [5]: 107 MEQ/L
CHOLESTEROL [5]: 57 mg/dL
CREATININE [5]: 0.5 mg/dL
GLUCOSE [5]: 124.4 mg/dL
LACTATE DEHYDROGENASE [5]: 106.4 u/L
LIPASE [5]: 24.4 u/L
PHOSPHORUS [5]: 10.52 mg/dL
POTASSIUM [5]: 6.34 MEQ/L
SODIUM [5]: 149.2 MEQ/L
TOTAL BILIRUBIN [5]: 0.2 mg/dL
TOTAL PROTEIN [5]: 6.48 G/DL
URIC ACID [5]: 0.94 mg/dL
ALANINE AMINOTRANSFERASE [6]: 30 u/L
ALBUMIN [6]: 3.71 G/DL
ALKALINE PHOSPHATASE [6]: 186.8 u/L
ASPARTATE AMINOTRANSFERASE [6]: 78.2 u/L
BLOOD UREA NITROGEN [6]: 14.2 mg/dL
CHOLESTEROL [6]: 44.9 mg/dL
CREATINE PHOSPHOKINASE [6]: 334.3 u/L
CREATININE [6]: 0.6 mg/dL
GLUCOSE [6]: 147.2 mg/dL
LACTATE DEHYDROGENASE [6]: 123.1 u/L
LIPASE [6]: 9.6 u/L
PHOSPHORUS [6]: 10.01 mg/dL
POTASSIUM [6]: 6.57 MEQ/L
SODIUM [6]: 149.5 MEQ/L
TOTAL BILIRUBIN [6]: 0.21 mg/dL
TOTAL PROTEIN [6]: 6.66 G/DL
URIC ACID [6]: 1.26 mg/dL
ABSOLUTE BASOPHIL (10 mg/kg, 120 h, dose level High, time 5 day): 46 cells/µL
